Measurements reported in article PMC8954769, “Development of an LC-MS/MS Method for ARV-110, a PROTAC Molecule, and Applications to Pharmacokinetic Studies” (Molecules, 2022).

Key:
[1] = In vitro plasma stability, human; type: in vitro ADME; conditions: 37 °C, incubation 4 h, read-out: T1/2 in plasma
Experimental: (§1) The stabilities of ARV-110 in the hepatic microsomal fraction and plasma were investigated for three species (human, rat, and mouse). For the microsomal stability study, a reaction mixture containing hepatic microsomes (protein concentration, 0.5 mg/mL) and 1 mM NADPH in phosphate buffer (pH 7.4) was pre-incubated in a thermomixer (5 min, 37 °C, 200 rpm). To initiate the metabolic reaction, 5 μL of ARV-110 in methanol (100 μM) was added to the pre-incubated mixture to obtain a final ARV-110 concentration of 1 μM. The metabolic reactions of buspirone and verapamil were conducted simultaneously as positive controls. For plasma stability measurements, 5 μL of ARV-110 in methanol (100 μM) was added to pre-warmed blank plasma to obtain a final ARV-110 concentration of 1 μM. Procaine was used to control plasma stability. The temperature was maintained and agitation was continued throughout the reaction, and sampling was conducted at predetermined time points (0 (beginning of the reaction), 15; 30; 60; 120; […] min). For the microsomal and plasma stability measurements, the reaction was conducted for 120 and 240 min, respectively. […] The elimination rate constant (ke) was determined as the slope of the linear regression between the log of the percentage of analyte remaining and the incubation time. […]

[2] = In vitro plasma stability, mouse; type: in vitro ADME; conditions: 37 °C, incubation 4 h, read-out: T1/2 in plasma
Experimental: as §1

[3] = Pharmacokinetic study in rats (IV and PO); type: in vivo, Sprague Dawley (SD) rats; conditions: rat; for bioavailability: oral 5 mg/kg vs IV 2 mg/kg
Experimental: (§2) The validated LC-MS/MS method was applied to determine ARV-110 in pharmacokinetic studies in rats and mice. Animal studies were approved in advance by the Institutional Animal Care and Use Committee of Chungnam National University (202103A-CNU-053; Daejeon, Republic of Korea). Male Sprague Dawley (SD) rats (7 weeks old, 210–251 g) and male ICR mice (6 weeks old, 25–32 g) were purchased from Orient Bio Inc. (Seongnam, Republic of Korea). Their habitat was maintained under a 12 h light–dark cycle at a room temperature of 20–25 °C and a relative humidity of 40–60%. The animals had free access to food and water. Food fasting was started 14 or 4 h prior to drug administration to rats and mice, respectively. After drug administration, the animals were not given food or water for another 4 h.
The drug solution for the pharmacokinetic study in rats was prepared by dissolving ARV-110 in a dimethyl sulfoxide (DMSO)–PEG400–Cremophor EL–saline (5:40:5:50, v/v/v/v). The drug solution was administered to the rats via a single IV bolus into the tail vein at a dose of 2 mg/kg or PO using a gavage needle at a dose of 5 mg/kg. Blood samples (100 μL) were collected from the jugular vein using heparinized syringes at 0.083 (IV only), 0.25, 0.5, 1, 2, 4, 6, 8, 24, and 48 h after ARV-110 administration. Plasma was collected from the blood by centrifugation, and a 20 μL aliquot of plasma was stored at −20 °C until analysis.
(§3) For plasma sample preparation, 20 μL of rat or mouse plasma was added to 20 μL of IS solution (10 μg/mL) and 110 μL of acetonitrile. After vigorous mixing for 10 min, the mixture was centrifuged at 13,500 rpm for 10 min. An aliquot of the supernatant (100 μL) was collected for analysis. Cmax and Tmax were determined directly from the plasma concentration–time profile of each animal. To determine other pharmacokinetic parameters, the experimental data were analyzed using Phoenix® 8.2 software (Certara L.P., Princeton, NJ, USA), as described previously. All data are presented as mean ± SD.

[4] = Hepatic microsomal metabolic stability, rat; type: in vitro ADME; conditions: 1 mM NADPH, 37 °C
Experimental: as §1

[5] = test system: resistance models; design: method as in PMID 31885879, PMID 30271980; conditions: cited from earlier work
[6] = design: method as in doi:10.1200/JCO.2020.38.15_suppl.3500; conditions: preliminary data from a phase I clinical trial; cited from earlier work
[7] = Stability of ARV-110 QC samples in mouse plasma under storage conditions; type: in vitro ADME
Experimental: (§4) The sample stability in rat and mouse plasma was evaluated at low and high QC concentrations. The short-term stability was evaluated at room temperature for 1 h, whereas the long-term stability was determined by assaying samples stored at −20 °C for 4 weeks. […] The freeze–thaw stability was tested by subjecting samples to three freeze–thaw cycles.

[8] = test system: AR; design: method as in PMID 31885879, PMID 30271980; conditions: various prostate cancer cell lines; cited from earlier work
[9] = Stability of ARV-110 QC samples in rat plasma under storage conditions; type: in vitro ADME
Experimental: as §4

[10] = Hepatic microsomal metabolic stability, mouse; type: in vitro ADME; conditions: 1 mM NADPH, 37 °C
Experimental: as §1

[11] = Hepatic microsomal metabolic stability, human; type: in vitro ADME; conditions: 1 mM NADPH, 37 °C
Experimental: as §1

[12] = In vitro plasma stability, rat; type: in vitro ADME; conditions: 37 °C, incubation 4 h, read-out: T1/2 in plasma
Experimental: as §1

[13] = Pharmacokinetic study in mice (IV and PO); type: in vivo, ICR mice; conditions: mouse; for bioavailability: oral 5 mg/kg vs IV 2 mg/kg, after dose normalization
Experimental: as §2
The drug solution for the pharmacokinetic study in mice was prepared by dissolving ARV-110 in DMSO–PEG400–Cremophor EL–saline (5:30:2.5:62.5, v/v/v/v). The drug solution was administered via an IV bolus into the tail vein at a dose of 2 mg/kg or PO at a dose of 5 mg/kg. Blood samples (50 μL) were alternatively collected from the right retro-orbital plexus at 0.05 (IV only), 0.12, 0.5, 1, 2, 4, 8, 24, and 48 h after ARV-110 administration. Plasma was obtained by centrifuging the blood at 17,600× g for 5 min, and a 20 μL aliquot of plasma was stored at −20 °C until analysis.
as §3

[14] = design: method as in PMID 34355087; conditions: cited from earlier work
[15] = male, Sprague Dawley, in vivo, intravenous, 2 mg/kg
[16] = male, Sprague Dawley, in vivo, oral, 5 mg/kg
[17] = 15 min at room temperature (25 °C), nominal 5 ng/mL
[18] = 15 min at room temperature (25 °C), nominal 2500 ng/mL
[19] = 1 h at room temperature (25 °C), nominal 5 ng/mL
[20] = 1 h at room temperature (25 °C), nominal 2500 ng/mL
[21] = 4 h on ice cold, nominal 5 ng/mL
[22] = 4 h on ice cold, nominal 2500 ng/mL
[23] = Freeze–thaw (3 cycles), nominal 5 ng/mL
[24] = Freeze–thaw (3 cycles), nominal 2500 ng/mL
[25] = Long term (4 weeks at −20 °C), nominal 5 ng/mL
[26] = Long term (4 weeks at −20 °C), nominal 2500 ng/mL
[27] = Processed sample (autosampler, 10 °C, 24 h), nominal 5 ng/mL
[28] = Processed sample (autosampler, 10 °C, 24 h), nominal 2500 ng/mL
[29] = male, ICR, in vivo, intravenous, 2 mg/kg
[30] = male, ICR, in vivo, oral, 5 mg/kg

Structure (SMILES): N#Cc1ccc(O[C@H]2CC[C@H](NC(=O)c3ccc(N4CCC(CN5CCN(c6cc7c(cc6F)C(=O)N(C6CCC(=O)NC6=O)C7=O)CC5)CC4)nn3)CC2)cc1Cl (stereo partly drawn) [ARV-110, bavdegalutamide]
- half-life at 1 μM [1]: 0.4 h
- half-life at 1 μM [2]: 1.55 h
- AUC(0-inf) [3, 15]: 4860 ± 381 ng·h/mL
- AUC(0-t) [3, 15]: 4530 ± 288 ng·h/mL
- Cmax [3, 15]: 2520 ± 292 ng/mL
- MRT [3, 15]: 10.2 ± 0.48 h
- Tmax [3, 15]: 0.083 h
- clearance [3, 15]: 6.89 mL/min/kg
- half-life [3, 15]: 13.6 ± 1.43 h
- Vd ([3]; male, Sprague Dawley, in vivo, intravenous, 2 mg/kg, read-out: Vss): 5.78 ± 0.32 L/kg
- AUC(0-inf) [3, 16]: 2890 ± 318 ng·h/mL
- AUC(0-t) [3, 16]: 2420 ± 222 ng·h/mL
- Cmax [3, 16]: 110 ± 9.2 ng/mL
- MRT [3, 16]: 16.4 ± 1.16 h
- Tmax [3, 16]: 5.5 ± 1.92 h
- half-life [3, 16]: 17.7 ± 3.21 h
- bioavailability ([3]; male, Sprague Dawley, in vivo, 5 mg/kg, read-out: Bioavailability): 23.8%
- bioavailability [3]: 23.83 ± 2.62%
- half-life at 1 μM ([4]; pH 7.4, rat hepatic microsomes 0.5 mg/mL, read-out: elimination half-life (T1/2) in hepatic microsomes): 36.9 h
- drug remaining after incubation for 2 h ([4]; rat hepatic microsomes 0.5 mg/mL, 1 μM): 96.60%
- reduction of tumor growth [5]: 70–100%
- safety and tolerability in patients [6]: satisfactory safety and tolerability
- Stability in Mouse Plasma (%) [7, 17]: 99.43 ± 2.93%
- Stability in Mouse Plasma (%) [7, 18]: 95.74 ± 5.74%
- Stability in Mouse Plasma (%) [7, 19]: 83.70 ± 14.24%
- Stability in Mouse Plasma (%) [7, 20]: 78.91 ± 4.93%
- Stability in Mouse Plasma (%) [7, 21]: 93.01 ± 5.30%
- Stability in Mouse Plasma (%) [7, 22]: 94.09 ± 5.23%
- Stability in Mouse Plasma (%) [7, 23]: 104.0 ± 6.1%
- Stability in Mouse Plasma (%) [7, 24]: 103.2 ± 4.1%
- Stability in Mouse Plasma (%) [7, 25]: 97.97 ± 10.23%
- Stability in Mouse Plasma (%) [7, 26]: 97.59 ± 3.78%
- Stability in Mouse Plasma (%) [7, 27]: 98.77 ± 3.58%
- Stability in Mouse Plasma (%) [7, 28]: 98.62 ± 3.54%
- ARV-110 remained in QC samples ([7]; mouse plasma, short-term storage, 1 h at 25 °C): ~80%
- degradation of AR [8]: 95–98%
- Stability in Rat Plasma (%) [9, 17]: 100.6 ± 7.8%
- Stability in Rat Plasma (%) [9, 18]: 96.99 ± 2.27%
- Stability in Rat Plasma (%) [9, 19]: 68.73 ± 7.74%
- Stability in Rat Plasma (%) [9, 20]: 68.82 ± 1.08%
- Stability in Rat Plasma (%) [9, 21]: 92.20 ± 1.38%
- Stability in Rat Plasma (%) [9, 22]: 92.21 ± 2.24%
- Stability in Rat Plasma (%) [9, 23]: 103.2 ± 3.9%
- Stability in Rat Plasma (%) [9, 24]: 101.8 ± 3.4%
- Stability in Rat Plasma (%) [9, 25]: 100.6 ± 5.6%
- Stability in Rat Plasma (%) [9, 26]: 100.5 ± 5.0%
- Stability in Rat Plasma (%) [9, 27]: 99.60 ± 2.91%
- Stability in Rat Plasma (%) [9, 28]: 102.6 ± 4.1%
- ARV-110 remained in QC samples ([9]; rat plasma, short-term storage, 1 h at 25 °C): approximately 69%
- drug remaining after incubation for 2 h ([10]; mouse hepatic microsomes 0.5 mg/mL, 1 μM): 80.95%
- half-life at 1 μM ([10]; pH 7.4, mouse hepatic microsomes 0.5 mg/mL, read-out: elimination half-life (T1/2) in hepatic microsomes): 6.92 h
- drug remaining after incubation for 2 h ([11]; human hepatic microsomes 0.5 mg/mL, 1 μM): 92.07%
- half-life at 1 μM ([11]; pH 7.4, human hepatic microsomes 0.5 mg/mL, read-out: elimination half-life (T1/2) in hepatic microsomes): 16.4 h
- half-life at 1 μM [12]: 0.733 h
- AUC(0-inf) [13, 29]: 11300 ng·h/mL
- AUC(0-t) [13, 29]: 10800 ng·h/mL
- Cmax [13, 29]: 1260 ± 99 ng/mL
- MRT [13, 29]: 13.1 ± 0.9 h
- Tmax [13, 29]: 0.05 h
- clearance [13, 29]: 3.02 mL/min/kg
- half-life [13, 29]: 11.4 ± 0.51 h
- Vd ([13]; male, ICR, in vivo, intravenous, 2 mg/kg, read-out: Vss): 2.37 ± 0.402 L/kg
- AUC(0-inf) [13, 30]: 10700 ng·h/mL
- AUC(0-t) [13, 30]: 9870 ± 1000 ng·h/mL
- Cmax [13, 30]: 612 ± 88.4 ng/mL
- MRT [13, 30]: 12.9 ± 0.84 h
- Tmax [13, 30]: 4.8 ± 1.79 h
- half-life [13, 30]: 14.6 ± 2.48 h
- bioavailability ([13]; male, ICR, in vivo, 5 mg/kg, read-out: Bioavailability): 37.9%
- bioavailability [13]: 37.89 ± 4.16%

Structure (SMILES): Nc1cccc2c1C(=O)N(C1CCC(=O)NC1=O)C2=O (stereo not drawn) [pomalidomide]
- logP [14]: 0.01
- pKa [14]: 1.89
